Measured values as given in US11899014B2, “Detection of analytes using live cells” (THE TRUSTEES OF COLUMBIA UNIVERSITY IN THE CITY OF NEW YORK, priority 2014, dated 2024).
pEC50: −log10 of the molar value.

Key:
[1] = target: S. cerevisiae native Ste2 receptor (Saccharomyces cerevisiae, UniProt D6VTK4); experiment: Fungal GPCR activation in S. cerevisiae sensor strain, fluorescent reporter; assay type: cell-based; conditions: non-cognate peptide
[2] = system: C. albicans mating receptor (Ca.Ste2) biosensor; experiment: Paper-based dipstick assay, lycopene readout, C. albicans biosensor; assay type: cell-based, Candida albicans; conditions: 1 μM peptide
M. oryzea mating GPCR = assay type: cell-based, Magnaporthe oryzea
B. cinerea mating GPCR = assay type: cell-based, Botrytis cinerea; conditions: cognate synthetic peptide pheromone, fluorescent readout
[3] = system: P. brasiliensis mating receptor (Pb.Ste2) biosensor; assay type: cell-based, Paracoccidioides brasiliensis
[4] = system: F. graminearum mating GPCR; assay type: cell-based, Fusarium graminearum
endogenous GPCR Ste2 = endogenous GPCR Ste2 (Saccharomyces cerevisiae, UniProt D6VTK4); assay type: cell-based, S. cerevisiae; conditions: v1.0 lycopene reporter strain
Sequence of endogenous GPCR Ste2 (D6VTK4 whole entry): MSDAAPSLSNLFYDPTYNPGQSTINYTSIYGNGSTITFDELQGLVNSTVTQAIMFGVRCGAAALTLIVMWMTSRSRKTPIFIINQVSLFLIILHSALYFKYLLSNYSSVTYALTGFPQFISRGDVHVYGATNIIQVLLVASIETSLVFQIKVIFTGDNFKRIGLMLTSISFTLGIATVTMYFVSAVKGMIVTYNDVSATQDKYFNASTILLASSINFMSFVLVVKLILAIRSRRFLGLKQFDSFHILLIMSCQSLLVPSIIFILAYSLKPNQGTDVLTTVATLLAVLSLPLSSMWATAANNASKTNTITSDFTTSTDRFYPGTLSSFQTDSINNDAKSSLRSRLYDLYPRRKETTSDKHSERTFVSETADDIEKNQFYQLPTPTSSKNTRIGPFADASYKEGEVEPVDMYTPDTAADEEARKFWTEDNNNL

[5] = system: C. albicans mating GPCR (Ca.Ste2); assay type: cell-based, Candida albicans; conditions: non-cognate peptide
[6] = system: L. elongisporous mating GPCR; assay type: cell-based; conditions: cognate synthetic peptide pheromone, fluorescent readout

Sequence of S. cerevisiae native Ste2 receptor (D6VTK4 whole entry): as above

In the case of “GFRLTNFGYFEPG [GFRLTNFGYFEPG (SEQ ID NO: 5)]”, the “response of S. cerevisiae native Ste2 receptor to non-cognate pheromone” value [1] was “not”, the “time to maximal response in dipstick assay” value [2] was no more than 12 h and the “response of C. glabrata receptor to the other species pheromone” value (C. glabrata mating GPCR; non-cognate peptide) was “did not respond”.

“QWCPRRGQPCW [QWCPRRGQPCW (SEQ ID NO: 17)]” was tested, and the pEC50 (M. oryzea mating GPCR) was 5.30.

Work on WCGRPGQPC [WCGRPGQPC (SEQ ID NO: 20)] yielded a pEC50 (B. cinerea mating GPCR) greater than 9.00.

With WCTRPGQGC [WCTRPGQGC (SEQ ID NO: 11)] the “time to maximal response in dipstick assay” value [3] was no more than 12 h.

WCWWKGQPCW [WCWWKGQPCW (SEQ ID NO: 14)] was tested, and the pEC50 [4] was 6.64.

For “WHWLQLKPGQPMY [WHWLQLKPGQPMY (SEQ ID NO: 24)]”, the “time until reporter strain became visibly orange after exposure” value (endogenous GPCR Ste2) was 36 h.

“WHWVRLRKGQGLF [WHWVRLRKGQGLF (SEQ ID NO: 8)]” was tested, and the “response of C. albicans receptor to the other species pheromone” value [5] was “did not respond”, the “response of S. cerevisiae native Ste2 receptor to non-cognate pheromone” value [1] was “responded” and the pEC50 (C. glabrata mating GPCR; cognate synthetic peptide pheromone, biosensor settings) was 5.44.

For “WMWTRYGRFSPV [WMWTRYGRFSPV (SEQ ID NO: 34)]”, the pEC50 [6] was 7.29.
